Experimental data: PubChem BioAssay AID248 (DTP/NCI, 2004)
Where “and” joins values, the source holds several entries; their conditions need not be identical. Equal entries are not always repeated. Inconclusive results and toxic doses are left out. Cut-off read from the data, not from the text of the source: active = T/C of 150% or more; inactive = T/C below 125%.

System: L1210 leukemia ip in BDF1 mice, survival T/C
Assay: NCI In Vivo Anticancer Drug Screen. Data for tumor model L1210 Leukemia (intraperitoneal) in B6D2F1 (BDF1) mice
Conditions: endpoint: mean survival time, higher = longer survival
How it was run: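 Survival endpoint. Drug-treated group vs vehicle group, expressed as T divided by C. Tumor passaged by transplantation.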

[1] = dose: 100.0 mg/kg/injection, schedule: Q01DX001 (ip), vehicle: saline
[2] = dose: 100.0 mg/kg/injection, schedule: Q01DX009 (ip), vehicle: saline
[3] = dose: 100.0 mg/kg/injection, schedule: Q04DX003 (ip), vehicle: saline
[4] = dose: 200.0 mg/kg/injection, schedule: Q01DX001 (ip), vehicle: saline
[5] = dose: 200.0 mg/kg/injection, schedule: Q01DX009 (ip), vehicle: saline
[6] = dose: 200.0 mg/kg/injection, schedule: Q04DX003 (ip), vehicle: saline
[7] = dose: 400.0 mg/kg/injection, schedule: Q01DX001 (ip), vehicle: saline
[8] = dose: 100.0 mg/kg/injection, schedule: Q04DX003 (ip), vehicle: Klucel (hydroxypropylcellulose) (HPC)
[9] = dose: 200.0 mg/kg/injection, schedule: Q04DX003 (ip), vehicle: Klucel (hydroxypropylcellulose) (HPC)
[10] = dose: 400.0 mg/kg/injection, schedule: Q04DX003 (ip), vehicle: Klucel (hydroxypropylcellulose) (HPC)
[11] = dose: 100.0 mg/kg/injection, schedule: Q01DX001 (ip), vehicle: carboxymethylcellulose (CMC)
[12] = dose: 200.0 mg/kg/injection, schedule: Q01DX001 (ip), vehicle: carboxymethylcellulose (CMC)
[13] = dose: 400.0 mg/kg/injection, schedule: Q01DX001 (ip), vehicle: carboxymethylcellulose (CMC)
[14] = dose: 100.0 mg/kg/injection, schedule: Q04DX003 (ip), vehicle: other
[15] = dose: 200.0 mg/kg/injection, schedule: Q04DX003 (ip), vehicle: other
[16] = dose: 50.0 mg/kg/injection, schedule: Q01DX009 (ip), vehicle: saline
[17] = dose: 12.5 mg/kg/injection, schedule: Q04DX003 (ip), vehicle: Klucel (hydroxypropylcellulose) (HPC)
[18] = dose: 25.0 mg/kg/injection, schedule: Q04DX003 (ip), vehicle: Klucel (hydroxypropylcellulose) (HPC)

Measured: T/C

CC(=O)NC1=C(S(=O)(=O)O)c2ccccc2C1
inactive: [1] 105 % of control | [2] 98 % of control | dose: 100.0 mg/kg/injection, schedule: Q04DX002 (ip), vehicle: saline 94 % of control and 110 % of control and 118 % of control | [3] 104 % of control | [4] 115 % of control | [5] 98 % of control and 104 % of control | dose: 200.0 mg/kg/injection, schedule: Q04DX002 (ip), vehicle: saline 94 % of control and 103 % of control | [6] 96 % of control | [7] 108 % of control | dose: 400.0 mg/kg/injection, schedule: Q01DX009 (ip), vehicle: saline 105 % of control and 106 % of control | dose: 400.0 mg/kg/injection, schedule: Q04DX002 (ip), vehicle: saline 102 % of control and 109 % of control and 88 % of control | dose: 400.0 mg/kg/injection, schedule: Q04DX003 (ip), vehicle: saline 102 % of control

CCOC(=O)c1ccc(NC(=O)Nc2ccc(F)c([N+](=O)[O-])c2)cc1
inactive: dose: 100.0 mg/kg/injection, schedule: Q01DX009 (ip), vehicle: Klucel (hydroxypropylcellulose) (HPC) 95 % of control | dose: 200.0 mg/kg/injection, schedule: Q01DX009 (ip), vehicle: Klucel (hydroxypropylcellulose) (HPC) 101 % of control | dose: 400.0 mg/kg/injection, schedule: Q01DX009 (ip), vehicle: Klucel (hydroxypropylcellulose) (HPC) 96 % of control

NC(CCl)=NCc1cccnc1
inactive: dose: 12.5 mg/kg/injection, schedule: Q04DX002 (ip), vehicle: saline 97 % of control | dose: 25.0 mg/kg/injection, schedule: Q04DX002 (ip), vehicle: saline 108 % of control

CC(=O)Nc1ccc(C)c(NC(C)=O)c1
inactive: [8] 96 % of control | [9] 96 % of control | [10] 96 % of control

O=c1c(-c2ccccc2)c(-c2ccccc2)n2n1C1C=CC2C1 (stereo not drawn)
inactive: [11] 96 % of control | [12] 96 % of control | [13] 96 % of control

CCC1CCC(NC(=O)NCCF)CC1 (stereo not drawn)
inactive: dose: 75.0 mg/kg/injection, schedule: Q01DX001 (ip), vehicle: other 98 % of control

O=C(NC/C(Br)=C/Br)Oc1cccc2c1CCCC2
inactive: dose: 100.0 mg/kg/injection, schedule: Q04DX002 (ip), vehicle: other 94 % of control | dose: 200.0 mg/kg/injection, schedule: Q04DX002 (ip), vehicle: other 94 % of control | dose: 400.0 mg/kg/injection, schedule: Q04DX002 (ip), vehicle: other 91 % of control

CN(C)S(=O)(=O)c1ccc(CCc2ccccc2)cc1
inactive: dose: 50.0 mg/kg/injection, schedule: Q01DX001 (ip), vehicle: saline 101 % of control | [1] 95 % of control | [4] 95 % of control | [7] 95 % of control

NC1(N)Sc2nc3ccccc3nc2S1
inactive: dose: 100.0 mg/kg/injection, schedule: Q04DX002 (ip), vehicle: saline with Tween-80 101 % of control

O=C1NN=C2CCCCC12 (stereo not drawn)
inactive: [14] 107 % of control | [15] 97 % of control | dose: 400.0 mg/kg/injection, schedule: Q04DX003 (ip), vehicle: other 102 % of control

CCOC(=O)C1CSCN1 (stereo not drawn)
inactive: [3] 104 % of control | [6] 89 % of control

O=C(O)C(Cc1ccccc1)NC(=O)C(F)(F)F (stereo not drawn)
inactive: [14] 90 % of control | [15] 89 % of control

CNC(=O)N(C(C)C)C1CCCCC1
inactive: [14] 102 % of control | [15] 96 % of control

O=c1ccoc(-c2cc(=O)cco2)c1
inactive: dose: 25.0 mg/kg/injection, schedule: Q04DX003 (ip), vehicle: saline with Tween-80 97 % of control | dose: 50.0 mg/kg/injection, schedule: Q04DX003 (ip), vehicle: saline with Tween-80 93 % of control | dose: 100.0 mg/kg/injection, schedule: Q04DX003 (ip), vehicle: saline with Tween-80 95 % of control

c1nc(N2CC2)c2cnn(C3CCCCO3)c2n1 (stereo not drawn)
inactive: dose: 50.0 mg/kg/injection, schedule: Q01DX001 (ip), vehicle: carboxymethylcellulose (CMC) 97 % of control | [16] 102 % of control | [11] 103 % of control | [2] 113 % of control | [3] 100 % of control | [12] 106 % of control | [5] 112 % of control | [6] 97 % of control | [13] 103 % of control

CN(C)C(=S)Oc1cc(Cl)c(Cl)cc1Cl
inactive: [8] 96 % of control | [9] 95 % of control | [10] 90 % of control

COc1cccc(OC)c1OC
inactive: dose: 87.5 mg/kg/injection, schedule: Q01DX009 (ip), vehicle: Klucel (hydroxypropylcellulose) (HPC) 106 % of control | dose: 175.0 mg/kg/injection, schedule: Q01DX009 (ip), vehicle: Klucel (hydroxypropylcellulose) (HPC) 100 % of control | dose: 350.0 mg/kg/injection, schedule: Q01DX009 (ip), vehicle: Klucel (hydroxypropylcellulose) (HPC) 97 % of control

C/C(=C\Nc1cccnc1)C(=O)c1ccc(F)cc1
inactive: dose: 100.0 mg/kg/injection, schedule: Q01DX009 (ip), vehicle: saline with Tween-80 102 % of control | dose: 200.0 mg/kg/injection, schedule: Q01DX009 (ip), vehicle: saline with Tween-80 102 % of control | dose: 400.0 mg/kg/injection, schedule: Q01DX009 (ip), vehicle: saline with Tween-80 98 % of control

CC(C)CCCC(C)C1CCC2C3CC=C4CC([S+](C)C)CCC4(C)C3CCC12C (stereo not drawn)
inactive: dose: 25.0 mg/kg/injection, schedule: Q01DX009 (ip), vehicle: saline 96 % of control | [16] 96 % of control | dose: 100.0 mg/kg/injection, schedule: Q04DX003 (ip), vehicle: alcohol 98 % of control

O=C(COc1ccc(Cl)c(Cl)c1)NCc1ccc[n+](Cc2ccc(S(=O)(=O)F)c(Cl)c2)c1
inactive: dose: 25.0 mg/kg/injection, schedule: Q04DX003 (ip), vehicle: saline 106 % of control | dose: 50.0 mg/kg/injection, schedule: Q04DX003 (ip), vehicle: saline 106 % of control | [3] 92 % of control and 98 % of control

O=[As](O)(O)c1ccc(Cl)cc1C(F)(F)F
inactive: dose: 6.25 mg/kg/injection, schedule: Q04DX003 (ip), vehicle: Klucel (hydroxypropylcellulose) (HPC) 97 % of control | [17] 100 % of control | [18] 101 % of control and 103 % of control | [8] 101 % of control | [9] 103 % of control

CN=C(Nc1ccc(Cl)c(Cl)c1)C(C)C
inactive: dose: 6.25 mg/kg/injection, schedule: Q04DX002 (ip), vehicle: DMSO 98 % of control | dose: 12.5 mg/kg/injection, schedule: Q04DX002 (ip), vehicle: DMSO 95 % of control | dose: 25.0 mg/kg/injection, schedule: Q04DX002 (ip), vehicle: DMSO 94 % of control and 106 % of control | dose: 44.0 mg/kg/injection, schedule: Q01DX Z (ip), vehicle: methylcellulose (MC) 91 % of control | dose: 50.0 mg/kg/injection, schedule: Q04DX002 (ip), vehicle: DMSO 97 % of control | dose: 66.0 mg/kg/injection, schedule: Q01DX Z (ip), vehicle: methylcellulose (MC) 98 % of control | dose: 100.0 mg/kg/injection, schedule: Q01DX Z (ip), vehicle: methylcellulose (MC) 101 % of control

CCC[CH2][Pb]([CH2]CCC)([CH2]CCC)[O]C(=O)CCl
inactive: dose: 1.56 mg/kg/injection, schedule: Q01DX009 (ip), vehicle: Klucel (hydroxypropylcellulose) (HPC) 98 % of control | dose: 3.13 mg/kg/injection, schedule: Q01DX009 (ip), vehicle: Klucel (hydroxypropylcellulose) (HPC) 104 % of control | dose: 6.25 mg/kg/injection, schedule: Q01DX009 (ip), vehicle: Klucel (hydroxypropylcellulose) (HPC) 94 % of control and 98 % of control | [17] 101 % of control | [18] 100 % of control

Brc1ccc2[nH]c3c(c2c1)CSCC3
inactive: dose: 100.0 mg/kg/injection, schedule: Q01DX001 (ip), vehicle: saline with Tween-80 95 % of control | dose: 200.0 mg/kg/injection, schedule: Q01DX001 (ip), vehicle: saline with Tween-80 111 % of control | dose: 400.0 mg/kg/injection, schedule: Q01DX001 (ip), vehicle: saline with Tween-80 108 % of control

CC1OC(=O)C(C)(Br)OC1=O (stereo not drawn)
inactive: dose: 100.0 mg/kg/injection, schedule: Q01DX001 (ip), vehicle: acetone 93 % of control | dose: 200.0 mg/kg/injection, schedule: Q01DX001 (ip), vehicle: acetone 104 % of control

O=C(CN1CCOCC1)Nc1ccc(-c2ccc(NC(=O)CN3CCOCC3)cc2)cc1
inactive: [11] 92 % of control | [12] 97 % of control | [13] 92 % of control
